Measurements from US20040180855A1, “Methods of treating thrombosis with reduced risk of increased bleeding times” (priority 2003, published 2004).
Like-named read-outs stand apart in the source and are kept apart here.

Assays:
Human FXIa = biological target: T1, Human FXIa (Homo sapiens, UniProt P03951); assay: FXIa enzymatic activity (chromogenic S-2366; fluorescent assay for high potency); assay type: biochemical
T1 construct: purchased Enzyme Research Labs or Haematologic Technologies Inc
Protocol: Human FXIa activity (Enzyme Research Labs or Haematologic Technologies Inc.) was measured at room temperature in 96 well microtiter plates. The enzyme was incubated with drug for 3 minutes at an enzyme concentration of 0.5 nM in 145 mM NaCl, 5 mM KCl, 1 mg/mL PEG 8000,30 mM HEPES (pH 7.4). After the three minute incubation, 100 μM substrate, S-2366, (L-Pyroglut-Pro-Arg-pNA, Diapharma Group, Inc.) was added and the enzyme velocity was measured using a Molecular Devices Spectro Max Plus (405 nm wavelength) in kinetic mode and analyzed using SOFTmax Pro (ver 3.0) software. For routine compound evaluation, the fraction of control activity (FCA) was plotted as a function of the inhibitor concentration (I), and the curve was fit to the equation FCA /(1+[I]/IC50) to determine the IC50.
A fluorescent assay was performed under similar conditions to evaluate FXIa activity of compounds with high potency (IC50<10 nM). A different substrate (D-Ile-Pro-Arg-AFC.2TFA) and a different concentration of enzyme (0.043 nM) was used. The enzyme velocity was measured using a Molecular Devices fMax fluorescent plate reader (400 nm excitation, 505 nm emission).

human plasma = assay: APTT clotting time, human plasma; assay type: biochemical
From the text: The term “APTT” as used herein means “activated partial thromboplastin times” which is intended to refer to the time elapsed between the formation of an assay solution and the detection of clot formation in the assay solution with use of an APTT assay, i.e., an assay employing an intrinsic pathway activator, such as micronized silica, and a phospholipid component of a thromboplastin reagent (without tissue factor protein) for evaluating coagulation associated with the intrinsic pathway.
PT and APTT clotting times were determined as described in Balasubramanian et al., J. Med. Chem., Vol. 36 (1993), at pp. 300-03, incorporated herein by reference. The whole blood aggregation response of rat platelets to collagen was determined using the impedance procedure for a Model 560-CA Chrono-Log aggregometer (Havertown, Pa.).

FIXa = biological target: T2, FIXa (Homo sapiens, UniProt P00740); assay: Selectivity assay FIXa; assay type: biochemical; details: Table 3
T2 construct: purchased American Diagnostica

[1] = system: FeCl2-VT (vena cava thrombosis); assay: Venous thrombosis, vessel injury model (FeCl2-VT); assay type: in vivo; details: rat FeCl2-VT
Protocol: General Surgical Preparation Male Sprague Dawley rats (310 to 390 g) were anesthetized with Na-pentobarbital (50 mg/kg i.p.). The left jugular vein was cannulated with PE-50 tubing for drug administration, and the trachea was intubated with PE-205 tubing to ensure airway patency. In some animals, a carotid artery was cannulated with PE-50 tubing to obtain blood samples, and a procedure was followed as described in Schumacher et al., “Comparison of Thrombin Active-Site and Exosite Inhibitors and Heparin in Experimental Models of Arterial and Venous Thrombosis and Bleeding,” J. Pharmacol. Exp. Therap., Vol. 267 (1993), at pp. 1237-42; Schumacher et al., Effects of Antithrombotic Drugs in a Rat Model of Aspirin-Insensitive Arterial Thrombosis, Thromb Haemostasis, Vol. 69 (1993), at pp. 509-514; or Schumacher et al., Effect of a Novel Thrombin Active-Site Inhibitor on Arterial and Venous Thrombosis, Eur J Pharmacol., Vol. 259 (1994), at pp. 165-171, each of which is incorporated herein by reference. In each procedure, a small organic compound effective for inhibiting Factor XIa, as described herein, or saline vehicle, was administered i.v. as a loading infusion over 5 min plus a sustaining infusion that was maintained until the end of the procedure. Compound doses are indicated for each procedure in mg/kg plus mg/kg/hr. The volume of test article was 1 mL/kg plus 1 mL/kg/hr, except the 24 mg/kg+24 mg/kg/hr dose of compound where volume was doubled. […] Statistical Analysis In the venous and arterial thrombosis procedures, treatment effects on thrombus weight, baseline blood flow, and average blood flow during thrombosis were determined by analysis of variance with Dunnett's test for comparison to the vehicle group. […] Treatment effects on bleeding times were determined by analysis of variance with Dunnett's test for comparison to the vehicle group. Both post-treatment and pre-treatment bleeding times and the relative bleeding time increases in sec were analyzed. […]

Plasmin = biological target: T3, Plasmin (Homo sapiens, UniProt P00747); assay: Selectivity assay plasmin; assay type: biochemical; details: Table 3
T3 construct: Plasmin (Kabi Vitrum) was measured as for thrombin; purchased Kabi Vitrum

rat plasma (ex vivo PT) = assay: Ex vivo clotting time PT; assay type: in vivo; details: loading plus sustaining i.v. infusion
Protocol: Ex Vivo Clotting Times Ex vivo clotting time assays were used to determine the level of anticoagulation achieved in the thrombosis and bleeding time procedures, described above. A small organic compound for inhibiting Factor XIa was administered at doses (mg/kg+mg/kg/hr) of 0.5+0.5 (n=3), 2+2 (n=4), 6+6 (n=3), 12+12 (n=3) and 24+24 (n=10). Carotid artery blood (0.6 mL drawn into 1/10 volume of 3.8% Na-citrate) was sampled before (0 min control) and at 5, 15, 30, 60 and 90 min after the start of the compound infusion. The APTT was determined in freshly prepared plasma from each sample using the standard procedure for Dade Actin FSL reagent (Baxter Healthcare Corp., Miami, Fla.). The PT was determined in some animals from the 6+6 (n=3), 12+12 (n=3) and 24+24 (n=2) dose groups using Dade Thromboplastin●C reagent.
Plasma was sampled before (0 min control) and after the infusion, at intervals of 5, 15, 30, 60 and 90 min after initiating the infusion. Average APTT increases over the 15-90 min period, an interval most applicable to thrombosis and bleeding time protocols, were calculated. Control APTT values averaged 19.9±1.3 seconds overall. The PT was unaltered as expected from in vitro results. […] The range of efficacious doses in venous and arterial thrombosis (2+2, 6+6, 12+12; mg/kg+mg/kg/hr) produced an APTT increase of about 2.8 times control.

T1 sequence (P03951 388-625 limits assumed): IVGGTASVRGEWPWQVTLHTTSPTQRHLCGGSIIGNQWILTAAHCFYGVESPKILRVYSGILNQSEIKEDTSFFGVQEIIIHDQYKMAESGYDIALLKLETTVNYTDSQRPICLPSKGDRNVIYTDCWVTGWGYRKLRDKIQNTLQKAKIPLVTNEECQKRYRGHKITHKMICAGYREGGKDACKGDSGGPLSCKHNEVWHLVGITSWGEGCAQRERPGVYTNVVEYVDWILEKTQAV
T1 sequence (P03951 19-387 partner limits assumed): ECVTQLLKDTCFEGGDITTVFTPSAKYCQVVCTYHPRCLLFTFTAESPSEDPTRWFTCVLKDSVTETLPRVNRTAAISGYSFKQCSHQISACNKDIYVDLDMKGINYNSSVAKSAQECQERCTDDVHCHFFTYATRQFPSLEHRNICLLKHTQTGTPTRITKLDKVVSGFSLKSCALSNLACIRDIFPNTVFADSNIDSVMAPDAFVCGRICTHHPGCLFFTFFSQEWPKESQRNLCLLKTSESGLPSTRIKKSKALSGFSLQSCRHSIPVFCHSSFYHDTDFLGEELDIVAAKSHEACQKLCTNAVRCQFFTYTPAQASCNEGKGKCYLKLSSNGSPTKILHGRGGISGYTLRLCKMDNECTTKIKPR
T2 sequence (P00740 227-461 limits assumed): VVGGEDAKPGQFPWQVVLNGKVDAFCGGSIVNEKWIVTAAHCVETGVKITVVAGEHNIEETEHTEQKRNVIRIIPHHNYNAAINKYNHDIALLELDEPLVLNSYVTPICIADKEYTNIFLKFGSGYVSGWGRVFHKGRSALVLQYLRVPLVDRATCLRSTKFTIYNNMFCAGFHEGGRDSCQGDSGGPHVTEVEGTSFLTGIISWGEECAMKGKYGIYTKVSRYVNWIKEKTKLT
T2 sequence (P00740 47-191 partner limits assumed): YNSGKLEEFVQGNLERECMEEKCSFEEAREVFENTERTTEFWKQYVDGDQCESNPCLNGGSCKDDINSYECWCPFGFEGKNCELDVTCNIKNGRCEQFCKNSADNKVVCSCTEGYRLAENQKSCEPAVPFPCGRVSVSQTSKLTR
T3 sequence (P00747 581-810 limits assumed): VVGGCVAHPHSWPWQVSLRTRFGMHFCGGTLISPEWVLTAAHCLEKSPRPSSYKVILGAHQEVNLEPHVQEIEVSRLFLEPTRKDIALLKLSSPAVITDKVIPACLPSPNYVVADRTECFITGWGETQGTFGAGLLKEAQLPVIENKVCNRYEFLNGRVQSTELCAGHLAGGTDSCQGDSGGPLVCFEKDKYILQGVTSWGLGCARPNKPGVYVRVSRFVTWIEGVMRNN
T3 sequence (P00747 97-580 partner limits assumed): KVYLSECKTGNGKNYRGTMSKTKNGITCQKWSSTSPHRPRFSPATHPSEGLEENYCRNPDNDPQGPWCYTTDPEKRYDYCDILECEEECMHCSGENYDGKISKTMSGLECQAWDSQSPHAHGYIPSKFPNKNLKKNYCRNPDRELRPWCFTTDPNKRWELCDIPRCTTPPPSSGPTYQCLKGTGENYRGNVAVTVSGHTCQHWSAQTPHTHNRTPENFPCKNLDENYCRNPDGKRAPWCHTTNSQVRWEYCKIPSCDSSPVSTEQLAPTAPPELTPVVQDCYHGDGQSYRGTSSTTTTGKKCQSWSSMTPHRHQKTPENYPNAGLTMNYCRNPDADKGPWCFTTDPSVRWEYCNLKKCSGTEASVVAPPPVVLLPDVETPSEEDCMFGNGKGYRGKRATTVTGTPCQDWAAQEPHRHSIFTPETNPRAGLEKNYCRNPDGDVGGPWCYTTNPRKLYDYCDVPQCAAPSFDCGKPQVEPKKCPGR

SMILES: CC(C)(C)NC(=O)N1CCN(C(=O)N2C(=O)[C@H](CCCNC(=N)N)[C@H]2C(=O)O)CC1 [Example 4]
- IC50 (Human FXIa; Table 1, Factor XIa, approximate, read-out: IC50(≅)): ~0.0028 µM
- IC50 (Human FXIa; Table 3, read-out: IC50 (μM) FXIa): 0.0028 µM
- times more active than the FXa inhibitor for inhibiting Factor XIa (Human FXIa; from Table 3 IC50 values): more than 10,000 times
- times more active than the thrombin inhibitor (compound 16A) for inhibiting Factor XIa (Human FXIa; from Table 3 IC50 values): greater than 2,000 times
- Clotting time APTT (human), concentration that doubles clotting time (human plasma): 0.6 µM
- IC50 (FIXa): 17.4 µM
- inhibition (reduction in thrombus weight) ([1]; i.v. 0.2+0.2 mg/kg+mg/kg/hr, FIG. 3): about 38%
- dose dependence of thrombus weight reduction ([1]; i.v. 0.2+0.2 to 6+6 mg/kg+mg/kg/hr): Dose-dependent reductions
- reduction in thrombus weight ([1]; i.v. 6+6 mg/kg+mg/kg/hr, FIG. 3): approximately 90%
- IC50 (Plasmin): 1.7 µM
- effect on ex vivo PT (rat plasma (ex vivo PT)): unaltered
